Measured values reported in patent publication US9993462B2, “Hydantoin derivative-containing pharmaceutical composition” (Chugai Seiyaku Kabushiki Kaisha, priority 2014, dated 2018).

Tests used:
[1] = tested on: model rabbits with partially removed meniscus; test: Model rabbits with partially removed meniscus (osteoarthritis model), lesion area of articular cartilage; format: in vivo, rabbit; settings: continuous administration to the knee joint by osmotic pump, 3.0 or 30 μg/mL, 14 days after surgery
Source text: Twelve-week old male NZW rabbits (Oriental Yeast Co., Ltd.) were acclimated for five days, and then under isoflurane anesthesia, the lateral skin of the left knee joint was incised and the lateral collateral ligament and the sesamoid ligament were surgically removed to expose the lateral meniscus. The center of the lateral meniscus was excised at a width of 3 to 4 mm to produce an osteoarthritis model (Kikuchi T et al., Osteoarth Cart 1999; 4(2): 99-110). The tips of the three polyethylene tubes (PE60, Nippon Becton Dickinson Company) connected to three osmotic pumps (2ML1, Durect, Road Cupertino, Calif., US) that were embedded subcutaneously in the left femur were placed into the joint, and the drug solution was continuously administered to the knee joint. Each osmotic pump was filled with any of 1) vehicle control (50% dimethyl sulfoxide/50% physiological saline v/v); 2) Compound 7 at 3.0 μg/mL; or 3) Compound 7 at 30 μg/mL. […] Images of the surface structure of the lower leg bone were taken on a digital microscope (VHX-2000, Keyence Corporation), the area of the Indian ink-positive lesion site and the area of the entire lateral condyle were determined, and the proportion of the lesion site occupying the entire lateral condyle was calculated (FIG. 6).

human PTH1R = molecular target: T1, human PTH1R (Homo sapiens, UniProt Q03431); test: In vitro cAMP signal activity via the human PTH1R (HKRK-B7 cells); format: cell-based; settings: concentration at 20% cAMP signaling activity, human PTH(1-34) at 100 nM = 100%
T1 construct: expressed in transfected cells; host or cells: HKRK-B7 (LLC-PK1 porcine kidney cells stably expressing human PTH1R)
T1 sequence (Q03431 27-593): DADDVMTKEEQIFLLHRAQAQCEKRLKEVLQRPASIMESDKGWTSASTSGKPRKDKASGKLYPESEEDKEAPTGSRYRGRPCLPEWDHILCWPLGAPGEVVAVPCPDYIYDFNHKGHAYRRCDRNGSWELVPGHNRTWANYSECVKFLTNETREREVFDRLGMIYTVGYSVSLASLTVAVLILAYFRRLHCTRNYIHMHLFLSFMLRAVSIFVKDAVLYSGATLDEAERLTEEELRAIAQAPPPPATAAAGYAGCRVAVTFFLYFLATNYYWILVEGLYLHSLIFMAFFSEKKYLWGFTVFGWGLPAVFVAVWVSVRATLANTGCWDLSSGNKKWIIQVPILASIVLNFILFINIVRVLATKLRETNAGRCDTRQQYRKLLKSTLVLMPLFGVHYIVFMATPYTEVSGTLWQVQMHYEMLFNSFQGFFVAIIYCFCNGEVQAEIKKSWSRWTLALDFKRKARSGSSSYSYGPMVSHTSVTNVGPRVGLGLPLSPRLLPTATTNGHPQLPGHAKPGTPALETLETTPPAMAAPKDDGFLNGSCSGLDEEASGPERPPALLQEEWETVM
Method: Human PTH(1-34) and calcitonin were purchased from Peptide Institute, Inc. (Osaka, Japan), dissolved in 10 mM acetic acid to 1 mM and stored in a −80° C. freezer.
Cells were cultured in Dulbecco's modified Eagle's medium (DMEM) supplemented with 10% fetal bovine serum (Hyclone), 100 units/ml penicillin G and 100 μg/ml streptomycin sulfate (Invitrogen Corp) at 37° C. in a humidified atmosphere containing 5% CO2.
cAMP signal transduction analysis utilized LLC-PK1 cells not expressing the PTH1R, and HKRK-B7 cells, that is, LLC-PK1 cells overexpressing the human PTH1R at 9.5×10^5 receptors/cell (Takasu et al., J. Bone. Miner. Res. 14:11-20, 1999).
HKRK-B7 or LLC-PK1 cells were seeded into a 96-well plate at 1×10^5 cells/well and incubated overnight. On the following day, 50 μl of cAMP assay buffer (DMEM, 2 mM IBMX, 0.2 mg/ml bovine serum albumin, 35 mM Hepes-NaOH, pH 7.4) containing human PTH(1-34) or each compound was added and the plate was placed in a 37° C. incubator. The cells were incubated for 20 minutes. After removing the medium, the cells were washed with 100 μl of cAMP assay buffer once. The plate was placed on dry ice powder to freeze the cells and then removed from the dry ice. The cells were lysed with 40 μl of 50 mM HCl and frozen again on dry ice. The amount of intracellular cAMP produced was measured using a commercially available cAMP EIA kit (Biotrack cAMP EIA system, GE health care).
Analyses were performed using a variable gradient S-shaped dose-response curve equation.

TPTX rat = test: Calcemic action in the TPTX rat model; format: in vivo; settings: TPTX rats, 30 mg/kg oral
Method: Four-week old female Crl:CD(SD) rats were obtained from Charles River Japan (Atsugi Breeding Center), and were acclimated to standard laboratory conditions of 20-26° C. and 35-75% humidity for one week. The rats were given tap water and were fed ad libitum with standard rodent chow (CE-2) (CLEA Japan, Inc.) containing 1.1% calcium, 1.0% phosphoric acid, and 250 IU/100 g of vitamin D3.
TPTX was performed on five-week old rats. Some of the individuals were subjected to sham operation (Sham). Individuals whose serum Ca concentration was less than 8 mg/dL on four days after the operation were selected for use as TPTX rats. On five days after the operation, the rats were assigned to eight TPTX groups and one Sham group (n=5, each group) based on their body weight and serum Ca concentration measured on four days after the operation. The solvent alone was orally administered to the Sham group and the TPTX-Vehicle group at a volume of 10 mL/kg. Each test article was orally administered individually to each TPTX test article group by dissolving it in a solvent at a dose of 30 mg/10 mL/kg. The solvent composition was 10% dimethylsulfoxide (Wako Pure Chemical Industries, Ltd.), 10% Cremophor EL (Sigma-Aldrich Japan LLC), 20% hydroxypropyl-β-cyclodextrin (Nihon Shokuhin Kako Co., Ltd.), glycine (Wako Pure Chemical Industries, Ltd.); and the pH was adjusted to 10. Immediately before administration of each sample, Pre-blood collection was performed, and blood collection was carried out at 2, 6, 10, and 24 hours after administration to measure the serum Ca concentration. Each blood collection was carried out from the jugular vein under isoflurane inhalation anesthesia.
Serum Ca measurement: Serum obtained by centrifugation from the collected blood was measured by using an automatic analyzer TBA-120FR (Toshiba Medical Systems Corporation).
For statistical analysis of the animal studies, data are shown as mean±standard error (SE). Statistical analysis were performed by unpaired test of the SAS Preclinical Package (Ver. 5.00.010720, SAS Institute Japan, Tokyo, Japan).

Cc1cc(N2C(=O)NC(=O)C2(C)C)cc(C)c1CCS(=O)(=O)N1CCC2(CC1)N=C(c1ccc(OC(F)(F)F)cc1)NC2=O [Compound 7, 1-(3,5-dimethyl-4-(2-((4-oxo-2-(4-(trifluoromethoxy)phenyl)-1,3,8-triazaspiro[4.5]deca-1-en-8-yl)sulfonyl)ethyl)phenyl)-5,5-dimethylimidazolidine-2,4-dione]
area of the lesion site in the articular cartilage of the lower leg bone [1]: reduce the area of the lesion site in a dose-dependent manner | EC20 (human PTH1R): 1.1 µM | achievement of the therapeutic target range of serum Ca concentration of 7.6 to 8.8 mg/dL (TPTX rat): achieved the therapeutic target range | change of serum Ca concentration from the Pre-value (in words) (TPTX rat; up to 24 hours after administration): large positive changes from the Pre-value
